Here are results for six molecules from ChEMBL document CHEMBL1201862, “PubChem BioAssay data set” (2004).

A word on the GI50: it is the concentration at which growth is held to half of that of the control.

Among the test systems are ACHN; Malme-3M; SF-539; SK-MEL-2; DMS-273; NCI-H460; SNB-19; HOP-62; SK-MEL-5; HCT-15; OVCAR-3; HCT-116; IGROV-1; SK-OV-3; HOP-92; DU-145; MCF7; PC-3; MDA-MB-231; NCI/ADR-RES.
Common to all, as to assay: DTP human tumour cell line panel, 48 h

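Values below derive from 48-hour exposures of cells grown in 96-well plates, with endpoints linearly interpolated between the two concentrations bracketing the appropriate inhibition level. The concentration for 50% growth inhibition is given as GI50.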 The source made the active and inactive calls. Rule as the data show it: active = GI50 up to about 1.1 µM and inactive = higher. Some results are limits rather than exact numbers.

In the case of `COc1ccccc1NC(=O)C1=C(C)NC(C)=C(C(=O)Nc2ccccc2OC)C1c1ccccc1OC`, the GI50 with ACHN is 74.5 µM (inactive); with Malme-3M, > 100 µM (inactive); in the assay with SF-539, > 100 µM (inactive); in the assay on SK-MEL-2, > 100 µM (inactive); with DMS-273, > 100 µM (inactive); with NCI-H460, 97.3 µM (inactive). Besides, the GI50 is > 100 µM (inactive) in the assay with SNB-19; > 100 µM (inactive) in the assay on HOP-62; > 100 µM (inactive) in the assay with SK-MEL-5; more than 100 µM in the assay with HCT-15; 80.4 µM (inactive) in the assay with OVCAR-3; 38.9 µM (inactive) in the assay on HCT-116. The GI50 in the assay with IGROV-1, in the assay with SK-OV-3 and in the assay with HOP-92 was > 100 µM (inactive) throughout.
`COc1cc2c(oc(=O)c3cc4ccoc4c(OC)c32)c2cccc(O)c12`: the GI50 in the assay with ACHN, in the assay on Malme-3M, in the assay on SF-539, in the assay with SK-MEL-2, in the assay with DMS-273 and in the assay on NCI-H460 was > 100 µM (inactive) each time. Besides, the GI50 with SNB-19 is > 100 µM (inactive); in the assay on HOP-62 it was > 100 µM (inactive); with SK-MEL-5, > 100 µM (inactive); with HCT-15, more than 100 µM; with OVCAR-3, > 100 µM (inactive); in the assay on HCT-116, > 100 µM (inactive). The GI50 in the assay with IGROV-1, with SK-OV-3 and in the assay on HOP-92 was > 100 µM (inactive) throughout.
As for `CN(C)C[C@H]1CC[C@@H](CN(C)C)C1=O`, the GI50 was 8.32 µM (inactive) with ACHN; 3 µM (inactive) in the assay on Malme-3M; 10 µM (inactive) in the assay with SF-539; 7.73 µM (inactive) in the assay on SK-MEL-2; 8.71 µM (inactive) in the assay on DMS-273; 24.3 µM (inactive) with DU-145. Further, the GI50 in the assay with NCI-H460 was 19.5 µM (inactive); in the assay on SNB-19, > 50 µM (inactive); in the assay on HOP-62 it was > 50 µM (inactive); with SK-MEL-5, 11.6 µM (inactive); with HCT-15, 4.65 µM; with OVCAR-3 it was 9.06 µM (inactive). Further, the GI50 was 1.18 µM (inactive) in the assay on MCF7; 8.32 µM (inactive) with HCT-116; 15.2 µM (inactive) with IGROV-1; > 50 µM (inactive) with SK-OV-3; 8.63 µM (inactive) in the assay on PC-3; 8.47 µM (inactive) in the assay with HOP-92. Besides, the GI50 in the assay with MDA-MB-231 was 9.86 µM (inactive).
`Nc1ccc(S(=O)(=O)Nc2cnc3c(Cl)cccc3n2)cc1` [CHLORSULFAQUINOXALINE]: the GI50 with ACHN was 107 µM (inactive); in the assay with Malme-3M it was 164 µM (inactive); with SF-539 it was 126 µM (inactive); in the assay on SK-MEL-2, 226 µM (inactive); in the assay on DMS-273, 152 µM (inactive); in the assay with DU-145, 175 µM (inactive). In addition, the GI50 with NCI-H460 was 129 µM (inactive); in the assay with SNB-19, 92.3 µM (inactive); in the assay on HOP-62, 78.9 µM (inactive); in the assay with NCI/ADR-RES, 47.5 µM (inactive); with SK-MEL-5 it was 144 µM (inactive); with HCT-15 it was 53 µM. The GI50 in the assay on OVCAR-3 was 167 µM (inactive); in the assay with MCF7, 101 µM (inactive); in the assay with HCT-116, 7.28 µM (inactive); in the assay on IGROV-1, 2.58 µM (inactive); with SK-OV-3, > 33 µM (inactive); in the assay with PC-3, 86.1 µM (inactive). Besides, the GI50 with HOP-92 was 71.3 µM (inactive); with MDA-MB-231, > 69.7 µM (inactive).
In the case of `Cc1cc(Cl)cc2c1NC(=O)C2(O)CC(=O)c1ccco1` (stereo not drawn), the GI50 in the assay on ACHN was > 100 µM (inactive); in the assay on Malme-3M, > 48.5 µM (inactive); with SF-539, > 100 µM (inactive); in the assay with SK-MEL-2, > 85.9 µM (inactive); in the assay with DMS-273, > 100 µM (inactive); with DU-145, > 100 µM (inactive). Further, the GI50 in the assay on NCI-H460 was > 100 µM (inactive); in the assay on SNB-19 it was > 100 µM (inactive); with HOP-62, > 100 µM (inactive); in the assay on NCI/ADR-RES, 59.7 µM (inactive); in the assay with SK-MEL-5 it was 22.2 µM (inactive); in the assay with HCT-15, more than 100 µM. For the same molecule, the GI50 in the assay with OVCAR-3 is 52.4 µM (inactive); in the assay with HCT-116, > 77.3 µM (inactive); with IGROV-1, 99.3 µM (inactive); in the assay with SK-OV-3, > 100 µM (inactive); with PC-3, > 100 µM (inactive); with HOP-92, > 100 µM (inactive). The GI50 with MDA-MB-231 was 35.3 µM (inactive).
As to `COC(=O)c1ccccc1NC(=O)C(=O)Cc1nc2c3c(ccc2nc1O)C(=O)c1ccccc1C3=O`, the GI50 was 25 µM (inactive) with ACHN; 8.26 µM (inactive) with Malme-3M; 23.9 µM (inactive) in the assay with SF-539; 15 µM (inactive) in the assay on SK-MEL-2; 11.8 µM (inactive) with DMS-273; 16.2 µM (inactive) in the assay on NCI-H460. In addition, the GI50 in the assay with SNB-19 is 12.6 µM (inactive); in the assay with HOP-62, 13.9 µM (inactive); in the assay on SK-MEL-5, 2.99 µM (inactive); in the assay with HCT-15 it was 21.9 µM; in the assay with OVCAR-3, 15 µM (inactive); in the assay on HCT-116, 9.29 µM (inactive). Moreover, the GI50 in the assay on IGROV-1 was 15.7 µM (inactive); in the assay on SK-OV-3, 10.1 µM (inactive); in the assay on HOP-92, 15.8 µM (inactive).
